{"source": "patent US11535597B2", "about": "“Photoreactive ligands and uses thereof” (The Scripps Research Institute, priority 2017, dated 2022)", "test_system": "proteins in HEK293T cells", "test": "MS-based mapping of FFF probe-modified peptides (isoTOP, sites of labeling)", "type": "binding, human", "details": "for Labeled Peptide (residues) of NPM1 Nucleophosmin: P06748, PDB 2P1B", "method_in_brief": "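Live cells treated with fragment probes (200-250 μM) in serum-free DMEM, with or without competitor ligands. Proteomes clicked to light/heavy biotin-TEV-azide, streptavidin-enriched, trypsin- then TEV-digested; probe-modified peptides identified by LC-MS/MS with any residue allowed as modified site, isoTOP ratios quantified by CIMAGE.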"}
{"smiles": "C#CCCC1(CCC(=O)N2CCCCC2Cc2ccccc2)N=N1", "note": "(stereo not drawn) [probe 13, 1-(2-Benzylpiperidin-1-yl)-3-(3-(but-3-yn-1-yl)-3H-diazirin-3-yl)propan-1-one]", "values": [{"measurement": "Labeled Peptide of GRWD1 Glutamate-rich WD repeat-containing protein 1", "setting": "Accession Q9BQ67, residues of probe-labeled peptide, family Uncategorized", "value": "263-287"}, {"measurement": "Labeled Peptide", "setting": "IMPDH2 Inosine-5-monophosphate dehydrogenase 2, residues of probe-modified peptide", "value": "110-124"}, {"measurement": "Labeled Peptide", "setting": "MAPRE1 (Q15691), residues of the probe-labeled peptide", "value": "223-241"}, {"measurement": "Labeled Peptide", "setting": "MCM2 (P49736), residues of the probe-labeled peptide", "value": "797-807"}, {"measurement": "Labeled Peptide", "setting": "METTL7A (Q9H8H3), residues of the probe-labeled peptide", "value": "94-105"}, {"measurement": "Labeled Peptide", "setting": "NTMT1 (Q9BV86), residues of the probe-labeled peptide", "value": "167-185"}, {"measurement": "Labeled Peptide", "setting": "NUP155 (O75694), residues of the probe-labeled peptide", "value": "952-968"}, {"measurement": "Labeled Peptide", "setting": "OPA1 (O60313), residues of the probe-labeled peptide", "value": "801-818"}, {"measurement": "Labeled Peptide (residues) of NPM1 Nucleophosmin", "setting": "peptide DELHIVEAEAMNYEGSPIK", "value": "55-73"}, {"measurement": "Labeled Peptide (residues) of NPM1 Nucleophosmin", "setting": "peptide MSVQPTVSLGGFEITPPVVLR", "value": "81-101"}, {"measurement": "Labeled Peptide", "setting": "P12268 IMPDH2 Inosine-5-monophosphate dehydrogenase 2", "value": "110-124"}, {"measurement": "Labeled Peptide", "setting": "P24666 ACP1 Low molecular weight phosphotyrosine protein phosp", "value": "42-59"}, {"measurement": "Labeled Peptide", "setting": "P31939 ATIC Bifunctional purine biosynthesis protein PURH", "value": "178-194"}, {"measurement": "Labeled Peptide (residues) of PRDX2 Peroxiredoxin-2", "setting": "P32119, peptide TDEGIAYR, PDB 1QMV", "value": "120-127"}, {"measurement": "Labeled Peptide", "setting": "Q13867 BLMH Bleomycin hydrolase", "value": "203-218"}, {"measurement": "Labeled Peptide", "setting": "Q14240 EIF4A2 Eukaryotic initiation factor 4A-II", "value": "70-83"}, {"measurement": "Labeled Peptide", "setting": "protein ACP1 (P24666), residues of probe-labeled peptide", "value": "42-59"}, {"measurement": "Labeled Peptide", "setting": "protein ACP1 Low molecular weight phosphotyrosine protein phosp, residues of probe-labeled peptide", "value": "42-59"}, {"measurement": "Labeled Peptide", "setting": "protein ANP32A (Q10567), residues of probe-labeled peptide", "value": "117-132"}, {"measurement": "Labeled Peptide", "setting": "protein ANP32A Acidic leucine-rich nuclear phosphoprotein 32 fami, residues of probe-labeled peptide", "value": "117-132"}, {"measurement": "Labeled Peptide", "setting": "protein ANP32B (Q92688), residues of probe-labeled peptide", "value": "117-132"}, {"measurement": "Labeled Peptide", "setting": "protein AP1B1 (Q10567), residues of probe-labeled peptide", "value": "902-913"}, {"measurement": "Labeled Peptide", "setting": "protein ATIC (P31939), residues of probe-labeled peptide", "value": "178-194"}, {"measurement": "Labeled Peptide", "setting": "protein ATIC Bifunctional purine biosynthesis protein PURH, residues of probe-labeled peptide", "value": "178-194"}, {"measurement": "Labeled Peptide", "setting": "protein ATP5F1 (P24539), residues of probe-labeled peptide", "value": "71-90"}, {"measurement": "Labeled Peptide", "setting": "protein ATP6V1B2 (P21281), residues of probe-labeled peptide", "value": "83-93"}, {"measurement": "Labeled Peptide", "setting": "protein ATP6V1BE1 (P36543), residues of probe-labeled peptide", "value": "200-212"}, {"measurement": "Labeled Peptide", "setting": "protein BLMH (Q13867), residues of probe-labeled peptide", "value": "203-218"}, {"measurement": "Labeled Peptide", "setting": "protein BLMH Bleomycin hydrolase, residues of probe-labeled peptide", "value": "203-218"}, {"measurement": "Labeled Peptide", "setting": "protein CALM3 Calmodulin (P62158), residues of probe-labeled peptide", "value": "128-149"}, {"measurement": "Labeled Peptide", "setting": "protein CCT7 T-complex protein 1 subunit eta (Q99832), residues of probe-labeled peptide", "value": "85-106"}, {"measurement": "Labeled Peptide", "setting": "protein COPB1 Coatomer subunit beta (P53618), residues of probe-labeled peptide", "value": "262-279"}, {"measurement": "Labeled Peptide", "setting": "protein CSTF3 Cleavage stimulation factor subunit 3 (Q12996), residues of probe-labeled peptide", "value": "440-464"}, {"measurement": "Labeled Peptide", "setting": "protein DIABLO Diablo homolog, mitochondrial (Q9NR28), residues of probe-labeled peptide", "value": "124-140"}, {"measurement": "Labeled Peptide", "setting": "protein DIABLO Diablo homolog, mitochondrial, residues of probe-labeled peptide", "value": "124-140"}, {"measurement": "Labeled Peptide", "setting": "protein EEF1A1 Elongation factor 1-alpha 1 (P68104), residues of probe-labeled peptide", "value": "135-146"}, {"measurement": "Labeled Peptide", "setting": "protein EEF1G Elongation factor 1-gamma (P26641), residues of probe-labeled peptide", "value": "379-400"}, {"measurement": "Labeled Peptide", "setting": "protein EIF3L Eukaryotic translation initiation factor 3 submit (Q9Y262), residues of probe-labeled peptide", "value": "404-419"}, {"measurement": "Labeled Peptide", "setting": "protein EIF4A2 Eukaryotic initiation factor 4A-II (Q14240), residues of probe-labeled peptide", "value": "70-83"}, {"measurement": "Labeled Peptide", "setting": "protein EIF4A2 Eukaryotic initiation factor 4A-II, residues of probe-labeled peptide", "value": "70-83"}, {"measurement": "Labeled Peptide", "setting": "protein ERH Enhancer of rudimentary homolog (P84090), residues of probe-labeled peptide", "value": "18-34"}, {"measurement": "Labeled Peptide", "setting": "protein ERH Enhancer of rudimentary homolog, residues of probe-labeled peptide", "value": "18-34"}, {"measurement": "Labeled Peptide", "setting": "protein FKBP4 Peptidyl-prolyl cis-trans isomerase (Q02790), residues of probe-labeled peptide", "value": "190-206"}, {"measurement": "Labeled Peptide", "setting": "protein FKBP4 Peptidyl-prolyl cis-trans isomerase FKBP4, residues of probe-labeled peptide", "value": "190-206"}, {"measurement": "Labeled Peptide", "setting": "protein FKBP10 Peptidyl-prolyl cis-trans isomerase FKBP10 (Q96AY3), residues of probe-labeled peptide", "value": "198-212"}, {"measurement": "Labeled Peptide", "setting": "protein KPNA2 Importin subunit alpha-2, residues of the probe-labeled peptide", "value": "301-315"}, {"measurement": "Labeled Peptide", "setting": "protein NTMT1 N-terminal Xaa-Pro-Lys N-methyltransferase 1, residues of the probe-labeled peptide", "value": "167-185"}, {"measurement": "Labeled Peptide", "setting": "protein O43615 TIMM44 Mitochondrial import inner membrane translocase su", "value": "428-439"}, {"measurement": "Labeled Peptide", "setting": "protein P62241 RPS8 40S ribosomal protein S8", "value": "158-170"}, {"measurement": "Labeled Peptide", "setting": "protein P62314 SNRNP40 U5 small nuclear ribonucleoprotein Sm D1", "value": "67-86"}, {"measurement": "Labeled Peptide", "setting": "protein P62888 RPL30 60S ribosomal protein L30", "value": "58-68"}, {"measurement": "Labeled Peptide", "setting": "protein PDCD4 Programmed cell death protein 4 (Q53EL6)", "value": "246-256"}, {"measurement": "Labeled Peptide", "setting": "protein PDCD4 Programmed cell death protein 4, residues of the probe-labeled peptide", "value": "246-256"}, {"measurement": "Labeled Peptide", "setting": "protein PDS5A Sister chromatid cohesion protein PDS5 homolog A (Q29RF7)", "value": "638-657"}, {"measurement": "Labeled Peptide", "setting": "protein PFN1 Profilin-1 (P07737)", "value": "39-54"}, {"measurement": "Labeled Peptide", "setting": "protein PHGDH D-3-phosphoglycerate dehydrogenase (O43175)", "value": "295-308"}, {"measurement": "Labeled Peptide", "setting": "protein PMPCB Mitochondrial-processing peptidase subunit beta (O75439)", "value": "406-424"}, {"measurement": "Labeled Peptide", "setting": "protein PRDX2 Peroxiredoxin-2 (P32119)", "value": "120-127"}, {"measurement": "Labeled Peptide", "setting": "protein PRDX2 Peroxiredoxin-2, residues of the probe-labeled peptide", "value": "120-127"}, {"measurement": "Labeled Peptide", "setting": "protein PRMT1 Protein argine N-methyltransferase 1 (Q99873)", "value": "380-391"}, {"measurement": "Labeled Peptide", "setting": "protein PTPLAD1 3-hydroxyacyl-CoA dehydratase 3 (Q9P035)", "value": "133-146"}, {"measurement": "Labeled Peptide", "setting": "protein Q8N3U4 STAG2 Cohesin subunit SA-2", "value": "273-290"}, {"measurement": "Labeled Peptide", "setting": "protein Q96DI7 SNRNP40 U5 small nuclear ribonucleoprotein 40 kDa protein", "value": "233-260"}, {"measurement": "Labeled Peptide", "setting": "protein Q01082 SPTAN1 Spectrin beta chain, non-erythrocytic 1", "value": "1706-1717"}, {"measurement": "Labeled Peptide", "setting": "protein Q12931 TRAP1 Heat shock protein 75 kDa, mitochondrial", "value": "603-619"}, {"measurement": "Labeled Peptide", "setting": "protein Q92922 SMARCC1 SWI/SNF complex subunit SMARCC1", "value": "894-905"}, {"measurement": "Labeled Peptide", "setting": "protein RBC2 Replication (P35250)", "value": "211-230"}, {"measurement": "Labeled Peptide", "setting": "protein RCN1 Reticulocalbin-1 (Q15293)", "value": "91-105"}, {"measurement": "Labeled Peptide", "setting": "protein RPL30 60S ribosomal protein L30, residues of the probe-labeled peptide", "value": "58-68"}, {"measurement": "Labeled Peptide", "setting": "protein STAG2 Cohesin subunit SA-2, residues of the probe-modified peptide", "value": "273-290"}, {"measurement": "Labeled Peptide", "setting": "protein TIMM44 Mitochondrial import inner membrane translocase su, residues of the probe-modified peptide", "value": "428-439"}, {"measurement": "Labeled Peptide", "setting": "residues of probe-labeled peptide on TUBA4A Tubulin alpha-4A chain, Accession # P68366", "value": "340-352"}]}
